Experimental data from ChEMBL document CHEMBL4257529, “Antifungal amphiphilic kanamycins: new life for an old drug” (Medchemcomm, 2018).
Converted amounts (≈) assume the structure as drawn.

Tests used:
Assay type in all cases: functional
Fusarium graminearum [1] = assay: Synergistic antifungal activity against Fusarium graminearum infected in wheat plant assessed as spikelet curling at 360 mg/L in presence of 8 ml/L pyraclostrobin (reference value: 51.4%)
Fusarium graminearum [2] = assay: Antifungal activity against Fusarium graminearum infected in wheat plant assessed as fusarium head blight index at 180 mg/L (reference value: 53%)
Fusarium graminearum [3] = assay: Synergistic antifungal activity against Fusarium graminearum B4-5A strain D assessed as fluconazole MIC after 48 hrs by microdilution assay
Fusarium graminearum [4] = assay: Synergistic antifungal activity against Fusarium graminearum B4-5A strain C assessed as fluconazole MIC after 48 hrs by microdilution assay
Fusarium graminearum [5] = assay: Synergistic antifungal activity against Fusarium graminearum B4-5A strain B in presence of fluconazole after 48 hrs by checkerboard method
Fusarium graminearum [6] = assay: Synergistic antifungal activity against Fusarium graminearum infected in wheat plant assessed as fusarium head blight severity at 180 mg/L in presence of 0.512 L/ha caramba (reference value: 75%)
Candida albicans = assay: Antifungal activity against Candida albicans B-311
Fusarium graminearum [7] = assay: Antifungal activity against Fusarium graminearum B4-5A strain B after 48 hrs by microdilution assay
Fusarium graminearum [8] = assay: Synergistic antifungal activity against Fusarium graminearum B4-5A strain E in presence of fluconazole after 48 hrs by checkerboard method
Fusarium graminearum [9] = assay: Synergistic antifungal activity against Fusarium graminearum B4-5A strain E in presence of fluconazole after 48 hrs by microdilution assay
Fusarium graminearum [10] = assay: Synergistic antifungal activity against Fusarium graminearum B4-5A strain C in presence of fluconazole after 48 hrs by checkerboard method
Fusarium graminearum [11] = assay: Antifungal activity against Fusarium graminearum B4-5A strain E after 48 hrs by microdilution assay
Fusarium graminearum [12] = assay: Synergistic antifungal activity against Fusarium graminearum B4-5A strain B assessed as fluconazole MIC after 48 hrs by microdilution assay
Fusarium graminearum [13] = assay: Synergistic antifungal activity against Fusarium graminearum infected in wheat plant assessed as fusarium head blight index at 180 mg/L in presence of 0.438 L/ha prosaro 421 SC (reference value: 53%)

CCCCCCCCS(=O)(=O)OC[C@H]1O[C@H](O[C@@H]2[C@@H](O)[C@H](O[C@H]3O[C@H](CN)[C@@H](O)[C@H](O)[C@H]3O)[C@@H](N)C[C@H]2N)[C@H](O)[C@@H](N)[C@@H]1O
Activity (Fusarium graminearum [1]): 1.5%
Activity_index (Fusarium graminearum [2]): 9%
MIC (Fusarium graminearum [3]): 0.195 µg/mL
MIC (Fusarium graminearum [4]): 0.25 µg/mL
fractional inhibitory concentration index (FICI) (Fusarium graminearum [5]): 0.5
Activity (Fusarium graminearum [6]): 50%
MIC (Candida albicans): > 7.8 µg/mL
MIC (Fusarium graminearum [7]): 16 µg/mL (≈ 24.2 µM)
fractional inhibitory concentration index (FICI) (Fusarium graminearum [8]): 0.7
MIC (Fusarium graminearum [9]): 4 µg/mL
fractional inhibitory concentration index (FICI) (Fusarium graminearum [10]): 0.37
MIC (Fusarium graminearum [11]): 16 µg/mL (≈ 24.2 µM)
MIC (Fusarium graminearum [12]): 6.25 µg/mL
Activity_index (Fusarium graminearum [13]): 6%
